Common to all, as to type: cell-based, human
The subject of data set [1] is HROC24 cells. In words: Apoptosis/necrosis assay, YO-PRO-1/PI flow cytometry. Particulars: for Levels of viable HROC24 cells: 24h, higher concentrations. As for the experimental part: (§1) Figure 5 Apoptosis/necrosis assay and Western blot analysis (A, B) HROC18 and HROC24 cells were exposed to increasing HDP concentrations for a period of 24 hours. Tumor cells were stained with YO-PRO-1 for detecting early and late apoptotic tumor cells. Prior to flow cytometric analysis, PI was added to detect necrotic cells, as well. (A) Representative dot plots showing HDP-treated HROC24 cells at a concentration of 5 μM. Lower right quadrant: early apoptotic cells; upper right quadrant: late apoptotic cells; upper left quadrant: necrotic cells. (B) For cell death quantification, values of background cell death (=untreated controls) were subtracted from values of HDP-treated cells. Left panel: HROC24 cell; right panel: HROC18 cells. (C, E) Representative western blot results showing HDP-treated HROC24 cells (20 μg of total protein per lane). (D, F) Quantitative analysis of BAX and HSP90 expression in HDP-treated cells was done as described in material & methods. Expression levels of untreated cells were set to be =1 and x-fold increases of HDP-exposed cells were calculated. […] Values are given as mean ± SD.
(§2) Cell death was quantified by YO-PRO-1 (Invitrogen) and PI double staining. Selected tumor cells (HROC24 and HROC18, 1 × 10^4 cells/well) were seeded in 24-well plates and incubated overnight. Thereafter, peptides were added in increasing concentrations (ranging from 0.25 μM – 12.5 μM). Untreated cells served as living control. Following a 24-hour incubation period, supernatants were collected; cells were trypsinized and washed in PBS. Cells were stained with YO-PRO-1 (final concentration: 0.2 μM) for 20 min at room temperature. Prior to flow cytometric analysis, PI was added at a final concentration of 100 μg/ml. For cell death quantification, values of background cell death (=untreated controls) were subtracted from values of HDP-treated cells.

A further data set has as its system HROC18 cells. Described as above. Particulars: HROC18, 24h; for total killing: background cell death subtracted. As for the experimental part: as §1, §2
For a further data set, the system named is HCT116 cells. In words: Calcein-AM cell viability staining, 24h. To be noted: HCT116, 24h, 0.25-12.5 μM. The method, then:
(§3) Figure 4 HDP-mediated cytotoxicity towards tumor cells Quantitative analysis of direct cytotoxicity towards tumor cells following a 24h incubation period with increasing HDP concentrations. Viability was assessed using Calcein-AM staining. Remaining viable tumor cells were quantified in comparison to untreated controls, which were set to be =1. […] Values are given as the mean x-fold increase ± SD. *p<0.05 vs. NK11; **p<0.01 vs. NK11.
(§4) This assay is based on Calcein-acetoxymethylester (Calcein-AM; Invitrogen, Darmstadt, Germany) staining to detect viable cells within a culture. Tumor and normal (PBL) cells (1-2 × 10^4 cells/well in triplicates) were seeded in 96-well plates and incubated overnight. Thereafter, peptides were added in increasing concentrations (ranging from 0.25 μM – 12.5 μM). Untreated cells served as living cell control. Medium was removed after 1h or 24h, respectively. Calcein-AM ([…]) was added and incubated for 30 min (37°C, 5% CO2). Analysis was performed on a fluorescence multi-well plate reader (Tecan Infinite® M200, Crailsheim, Germany) at an excitation wavelength of 485 nm (emission 535 nm). For estimation of cell viability, the relative fluorescence intensities of Calcein-AM-stained non-treated cells (=live control) were set to be 1, and fluorescence intensities of samples were calculated. Data of at least three independent experiments each performed in […] are given.

The subject of data set [2] is HROC24 cells. Description: Calcein-AM cell viability staining, 24h. To be noted: HROC24, 24h, 0.25-12.5 μM. As for the experimental part:
as §3, §4

The test system of the next data set is HROC113 cells. Description: Calcein-AM cell viability staining, 24h. To be noted: HROC113, 24h, 0.25-12.5 μM. The method, then: as §3, §4
The test system of another data set is HROC107 cells. In words: Calcein-AM cell viability staining, 24h. Particulars: HROC107, 24h, 0.25-12.5 μM. As for the experimental part: as §3, §4
For the next data set, the system named is HROC60 cells. In words: Calcein-AM cell viability staining, 24h. To be noted: HROC60, 24h. The method, then:
as §3, §4

The subject of the next data set is CRC tumor cell lines. In words: Calcein-AM cell viability staining, short-term exposure (1h). To be noted: 0.25-12.5 μM, three separate experiments. As for the experimental part: According to our classification, we included three PS^high (HCT116, HROC18, and HROC24), three PS^int (HROC40, HROC60, and HROC113), and two PS^low (HROC32 and HROC107) surface-exposed cell lines.
Figure 3 Short-term exposure of HDPs towards tumor cells (A) Representative pictures showing morphological changes in HROC24 cells upon HDP C7A-D21K exposure (25 μM). As a control, HROC24 cells were treated with NK11 (25 μM). (B) Quantitative analysis of direct cytotoxicity towards tumor cells. Tumor cells were treated for 1h with increasing HDP concentrations. Thereafter, viability was assessed using Calcein-AM staining. Remaining viable tumor cells were quantified in comparison to untreated controls, which were set to be =1. […] Values are given as the mean x-fold increase ± SD, *p<0.05 vs. NK11; **p<0.01 vs. NK11.
(§5) This assay is based on Calcein-acetoxymethylester (Calcein-AM; Invitrogen, Darmstadt, Germany) staining to detect viable cells within a culture. […] Analysis was performed on a fluorescence multi-well plate reader (Tecan Infinite® M200, Crailsheim, Germany) at an excitation wavelength of 485 nm (emission 535 nm). For estimation of cell viability, the relative fluorescence intensities of Calcein-AM-stained non-treated cells (=live control) were set to be 1, and fluorescence intensities of samples were calculated. […]

Data set [3] has as its system peripheral blood lymphocytes (PBL). In words: Lymphotoxicity, Calcein-AM viability of PBL. To be noted: PBL of six healthy donors, 24h, 0.25-12.5 μM. The method, then: Figure 6 Hemolysis and lymphotoxicity assays (A) Hemolytic activity of HDPs was determined by hemoglobin release from whole blood cells after 120 min incubation. Negative controls were left untreated whereas positive controls (=maximum lysis) were treated with 1% SDS. Hemolytic activity was quantified as described in the material and methods section. (B) PBLs were incubated in the presence of increasing HDP concentrations for a period of 24 hours. Viability was analyzed using Calcein-AM and quantified in comparison to untreated controls, which were set to be =1. […] Experiments were performed in triplicates. Values are given as the mean x-fold increase ± SD.
CRC cell lines HROC18, HROC24, HROC32, HROC40, HROC57, HROC60, HROC69, HROC80, HROC87, HROC107, and HROC113 were established in our lab from patients subsequent to surgical resection. […]
as §5

Consider “KILRGVAKKIMRTFLRRISKDILTGKK [Peptide C7A, NK-2 derivative, Cys7 replaced with Ala]”, for which, in the data set on HROC24 cells [1], the “Levels of viable HROC24 cells” value is reported as 25%. Also, in the data set on HROC18 cells, the total killing result is on record as “up to 60%”. Besides, the “Lytic activity towards tumor cells” value in the data set with HCT116 cells and in the data set on HROC24 cells [2] was “as effective as the reference compound Mellitin” each time.
For the sequence “KILRGVAKKIMRTFLRRISKKILTGKK [Peptide C7A-D21K, C7A with Asp21 substituted by Lys]”, the “Levels of viable HROC24 cells” value in the data set on HROC24 cells [1] is 17%. Also, the “Tumor killing compared with Melittin” value in the data set on HROC24 cells [1] (HROC24, 24h) was “as effective in tumor killing as Melittin”. Also, the “Tumor killing, ranking” value in the data set with HROC18 cells was “the most effective one and even slightly better than Melittin”. Moreover, in the data set on HROC18 cells, the total killing came out at 74%. Besides, the “Killing of tumor cells / viability” value in the data set with HROC113 cells and in the data set on HROC107 cells was “most effective in killing these tumor cells” throughout. Moreover, the lysis vs. control with HROC60 cells was over 40%. Moreover, the “Lytic activity towards tumor cells” value in the data set with HCT116 cells and with HROC24 cells [2] was “as effective as the reference compound Mellitin” in each case.
As to “KISKRILTGKK [NK11, non-toxic control peptide based on NK-2, reference compound]”, the “Direct cytotoxicity / tumor cell lysis after short-term exposure” value in the data set with CRC tumor cell lines was “lack of NK11-mediated tumor cell lysis”. The Lymphocyte viability result in data set [3] was “did not affect lymphocyte viability”.
